Measurements as given in patent US20250296959A1, “B7-H3 TARGETING PEPTIDES AND CONSTRUCTS THEREOF” (Mariana Oncology Inc., priority 2024, published 2025).
Read-outs that look alike come from different tables or passages of the source. Starred links: 1 amine or outer side, 2 acyl side, 3 side chain; linkers in the order of their positions; H or OH if unused. Positions of bridges follow the written chain, without caps; N, C: chain ends. Non-standard residues stand in square brackets, D forms with d. Residues, ends and D or L forms follow the SMILES beside them. Groups on a side chain read outwards from the residue. *: point of attachment. X2 = O=C(O)CN1CCN(CC(=O)O)CCN(CC(=O)NCCOCCOCCOCCOCC(=O)*)CCN(CC(=O)O)CC1; Ala(piperidin-4-yl) = O=C([C@H](CC1CCN([*:3])CC1)N[*:1])[*:2]; DOTA = O=C(O)CN1CCN(CC(=O)O)CCN(CC(=O)*)CCN(CC(=O)O)CC1; Phe(4-COOH) = N[C@@H](Cc1ccc(C(=O)O)cc1)C(=O)O; Trp(5-F) = N[C@@H](Cc1c[nH]c2ccc(F)cc12)C(=O)O; PEG8 = NCCOCCOCCOCCOCCOCCOCCOCCOCCC(=O)O; γGlu = O=C(O)[C@H](CCC(=O)[*:2])N[*:1]; 1Nal = N[C@@H](Cc1cccc2ccccc12)C(=O)O; Ala(4-THP) = N[C@@H](CC1CCOCC1)C(=O)O; Val(3-OH) = CC(C)(O)[C@H](N)C(=O)O; 4Pal = N[C@@H](Cc1ccncc1)C(=O)O; Tle = CC(C)(C)[C@H](N)C(=O)O; hLeu = CC(C)CC[C@H](N)C(=O)O

What was measured:
human 4lg B7-H3 = molecular target: T1, human 4lg B7-H3 (Homo sapiens, UniProt Q5ZPR3); assay: Affinity determination by surface plasmon resonance (SPR) to 4Ig B7-H3; conditions: 4Ig B7-H3
T1 sequence (Q5ZPR3 29-534): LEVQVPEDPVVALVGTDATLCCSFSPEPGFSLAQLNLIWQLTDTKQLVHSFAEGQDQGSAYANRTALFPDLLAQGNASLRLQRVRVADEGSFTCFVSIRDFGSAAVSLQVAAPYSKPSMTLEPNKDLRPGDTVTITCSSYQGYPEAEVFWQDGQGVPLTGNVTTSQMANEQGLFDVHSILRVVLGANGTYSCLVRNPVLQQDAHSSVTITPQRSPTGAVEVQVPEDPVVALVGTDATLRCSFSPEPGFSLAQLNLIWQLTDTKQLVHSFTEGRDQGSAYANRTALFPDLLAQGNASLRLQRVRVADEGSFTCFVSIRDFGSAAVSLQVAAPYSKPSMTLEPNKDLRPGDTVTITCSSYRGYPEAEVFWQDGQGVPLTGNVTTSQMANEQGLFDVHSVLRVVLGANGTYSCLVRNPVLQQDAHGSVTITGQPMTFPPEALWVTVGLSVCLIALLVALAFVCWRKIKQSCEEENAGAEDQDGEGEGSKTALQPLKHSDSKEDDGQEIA

Calu-6 cell line [1] = assay: Cell associated (bound) fraction of [177Lu]Lu-labeled peptide in Calu-6 cells; assay type: cell-based, Human; conditions: 1 hour, 37° C.
Procedure, shortened: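 Detached B7-H3-expressing human lung cancer cells at 5 million/mL were exposed for 1 hour at 37 °C to 0.8 μCi of the 177Lu-labelled peptide, which was formulated in 1% PBSA after labelling at 80 °C, pH ~5. Supernatant and two cold washes counted as unbound, and resuspended cells gamma-counted as the cell-associated fraction.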

Calu-6 cell line [2] = assay: Net internalization of [177Lu]Lu-labeled peptide in Calu-6 cells; assay type: cell-based, Human; conditions: 1 hour, 37° C., glycine pH 2.5 acid wash
Procedure, shortened: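 Calu-6 cells, human non-engineered lung cancer expressing B7-H3, resuspended in 1% PBSA at 5 million cells/mL and incubated with the 177Lu-labeled conjugate (labeled at 80 °C, pH ~5, RP-HPLC checked). Gamma counting of the bound fraction, then of the pellet after two glycine pH 2.5 acid strips and NaOH lysis, gives internalized activity.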

[3] = SPR KD—25° C., 25° C. flow cell temperature
[4] = read-out: SPR KD—25° C., 25° C. flow cell temperature
[5] = read-out: SPR KD—37° C., 37° C. flow cell temperature

CC(=O)N[C@@H](CCC(C)C)C(=O)N[C@@H](Cc1ccc(O)cc1)C(=O)N[C@H]1CSSC[C@@H](C(=O)N[C@@H](Cc2cccc3ccccc23)C(=O)N[C@@H](Cc2ccccc2)C(=O)N2CCC[C@H]2C(N)=O)NC(=O)[C@H](Cc2ccc(O)cc2)NC(=O)[C@H](C(C)C)NC(=O)[C@H](CC(=O)O)NC(=O)[C@H](Cc2ccncc2)NC(=O)[C@H](CCCCNC(=O)CC[C@H](NC(=O)CN2CCN(CC(=O)O)CCN(CC(=O)O)CCN(CC(=O)O)CC2)C(=O)O)NC(=O)CNC(=O)[C@H](C(C)(C)C)NC1=O [compound 252, Ac-hLeu-Y-C-Tbg-G-Lys(gE-DOTA)-4PyA-D-V-Y-C-1Nal-F-Pro-CONH2] (Ac-[hLeu]YC[Tle]GK([γGlu-DOTA])[4Pal]DVYC[1Nal]FP-NH2; disulfide 3-11)
Kd (human 4lg B7-H3; [3]): 1 to 10 nM
% cell associated fraction (Calu-6 cell line [1]): B (25<%≤50)
% net internalization (Calu-6 cell line [2]): A (%≤25)

CC(=O)N[C@@H](CCC(C)C)C(=O)N[C@@H](Cc1ccc(O)cc1)C(=O)N[C@H]1CSSC[C@@H](C(=O)N[C@@H](Cc2cccc3ccccc23)C(=O)N[C@@H](Cc2ccccc2)C(=O)N2CCC[C@H]2C(N)=O)NC(=O)[C@H](Cc2ccc(O)cc2)NC(=O)[C@H](C(C)C)NC(=O)[C@H](CC(=O)O)NC(=O)[C@H](Cc2ccncc2)NC(=O)[C@H](CCCCNC(=O)CC[C@H](NC(=O)CC[C@H](NC(=O)CN2CCN(CC(=O)O)CCN(CC(=O)O)CCN(CC(=O)O)CC2)C(=O)O)C(=O)O)NC(=O)CNC(=O)[C@H](C(C)(C)C)NC1=O [compound 253, Ac-hLeu-Y-C-Tbg-G-Lys(gE-gE-DOTA)-4PyA-D-V-Y-C-1Nal-F-Pro-CONH2] (Ac-[hLeu]YC[Tle]GK([γGlu-γGlu-DOTA])[4Pal]DVYC[1Nal]FP-NH2; disulfide 3-11)
Kd (human 4lg B7-H3; [3]): 1 to 10 nM
% cell associated fraction (Calu-6 cell line [1]): A (%≤25)
% net internalization (Calu-6 cell line [2]): A (%≤25)

CC(=O)N[C@@H](CCC(C)C)C(=O)N[C@@H](Cc1ccc(O)cc1)C(=O)N[C@H]1CSSC[C@@H](C(=O)N[C@@H](Cc2cccc3ccccc23)C(=O)N[C@@H](Cc2ccccc2)C(=O)N2CCC[C@H]2C(N)=O)NC(=O)[C@H](Cc2ccc(O)cc2)NC(=O)[C@H](C(C)C)NC(=O)[C@H](CC(=O)O)NC(=O)[C@H](Cc2ccncc2)NC(=O)[C@H](CCCCNC(=O)COCCOCCOCCOCCNC(=O)CN2CCN(CC(=O)O)CCN(CC(=O)O)CCN(CC(=O)O)CC2)NC(=O)CNC(=O)[C@H](C(C)(C)C)NC1=O [compound 256, Ac-hLeu-Y-C-Tbg-G-Lys(PEG4-DOTA)-4PyA-D-V-Y-C-1Nal-F-Pro-CONH2] (Ac-[hLeu]YC[Tle]GK(X2)[4Pal]DVYC[1Nal]FP-NH2; disulfide 3-11)
Kd (human 4lg B7-H3; [3]): 1 to 10 nM
% cell associated fraction (Calu-6 cell line [1]): A (%≤25)
% net internalization (Calu-6 cell line [2]): A (%≤25)

CC(=O)N[C@@H](CCC(C)C)C(=O)N[C@@H](Cc1ccc(O)cc1)C(=O)N[C@H]1CSSC[C@@H](C(=O)N[C@@H](Cc2cccc3ccccc23)C(=O)N[C@@H](Cc2ccccc2)C(=O)N2CCC[C@H]2C(=O)N[C@H](CCCCNC(=O)COCCOCCOCCOCCNC(=O)CN2CCN(CC(=O)O)CCN(CC(=O)O)CCN(CC(=O)O)CC2)C(N)=O)NC(=O)[C@H](Cc2ccc(O)cc2)NC(=O)[C@H](C(C)C)NC(=O)[C@H](CC(=O)O)NC(=O)[C@H](CC2CCOCC2)NC(=O)[C@H](CCCCN)NC(=O)CNC(=O)[C@H](C(C)(C)C)NC1=O [compound 259, Ac-hLeu-Y-C-Tbg-G-K-ThpA-D-V-Y-C-1Nal-F-Pro-dLys(PEG4-DOTA)-CONH2] (Ac-[hLeu]YC[Tle]GK[Ala(4-THP)]DVYC[1Nal]FP[dK](X2)-NH2; disulfide 3-11)
Kd (human 4lg B7-H3; [3]): < 1 nM
Kd (human 4lg B7-H3; SPR KD—37° C., 37° C. flow cell temperature): 1 to 10 nM
% cell associated fraction (Calu-6 cell line [1]): B (25<%≤50)
% net internalization (Calu-6 cell line [2]): A (%≤25)

CC(=O)N[C@@H](CCC(C)C)C(=O)N[C@@H](Cc1ccc(O)cc1)C(=O)N[C@H]1CSSC[C@@H](C(=O)N[C@@H](Cc2c[nH]c3ccc(F)cc23)C(=O)N[C@@H](Cc2ccccc2)C(=O)N2CCC[C@H]2C(=O)N[C@H](CCCCNC(=O)COCCOCCOCCOCCNC(=O)CN2CCN(CC(=O)O)CCN(CC(=O)O)CCN(CC(=O)O)CC2)C(N)=O)NC(=O)[C@H](Cc2ccc(O)cc2)NC(=O)[C@H](C(C)C)NC(=O)[C@H](CC(=O)O)NC(=O)[C@H](CC2CCOCC2)NC(=O)[C@H](CCCCN)NC(=O)CNC(=O)[C@H](C(C)C)NC1=O [compound 282, Ac-hLeu-Y-C-V-G-K-ThpA-D-V-Y-C-5FW-F-Pro-dLys(PEG4-DOTA)-CONH2] (Ac-[hLeu]YCVGK[Ala(4-THP)]DVYC[Trp(5-F)]FP[dK](X2)-NH2; disulfide 3-11)
Kd (human 4lg B7-H3; [3]): < 1 nM
% cell associated fraction (Calu-6 cell line [1]): B (25<%≤50)
% net internalization (Calu-6 cell line [2]): A (%≤25)

CC(=O)N[C@@H](CCC(C)C)C(=O)N[C@@H](Cc1ccc(O)cc1)C(=O)N[C@H]1CSSC[C@@H](C(=O)N[C@@H](Cc2c[nH]c3ccc(F)cc23)C(=O)N[C@@H](Cc2ccccc2)C(=O)N2CCC[C@H]2C(=O)N[C@H](CCCCNC(=O)CN2CCN(CC(=O)O)CCN(CC(=O)O)CCN(CC(=O)O)CC2)C(N)=O)NC(=O)[C@H](Cc2ccc(O)cc2)NC(=O)[C@H](C(C)C)NC(=O)[C@H](CC(=O)O)NC(=O)[C@H](Cc2ccc(C(=O)O)cc2)NC(=O)[C@H](CC2CCNCC2)NC(=O)CNC(=O)[C@H](C(C)C)NC1=O [compound 286, Ac-hLeu-Y-C-V-G-PipAla-4COOHPhe-D-V-Y-C-5FW-F-Pro-dLys(DOTA)-CONH2] (Ac-[hLeu]YCVG[Ala(piperidin-4-yl)][Phe(4-COOH)]DVYC[Trp(5-F)]FP[dK](DOTA)-NH2; disulfide 3-11)
Kd (human 4lg B7-H3; [4]): < 1 nM
Kd (human 4lg B7-H3; [5]): 1 to 10 nM
% cell associated fraction (Calu-6 cell line [1]): C (%>50)
% net internalization (Calu-6 cell line [2]): A (%≤25)

CC(=O)N[C@@H](CCC(C)C)C(=O)N[C@@H](Cc1ccc(O)cc1)C(=O)N[C@H]1CSSC[C@@H](C(=O)N[C@@H](Cc2c[nH]c3ccc(F)cc23)C(=O)N[C@@H](Cc2ccccc2)C(=O)N2CCC[C@H]2C(=O)N[C@H](CCCCNC(=O)CN2CCN(CC(=O)O)CCN(CC(=O)O)CCN(CC(=O)O)CC2)C(=O)O)NC(=O)[C@H](Cc2ccc(O)cc2)NC(=O)[C@H](C(C)C)NC(=O)[C@H](CC(=O)O)NC(=O)[C@H](CC2CCOCC2)NC(=O)[C@H](CCCCN)NC(=O)CNC(=O)[C@H](C(C)C)NC1=O [compound 288, Ac-hLeu-Y-C-V-G-K-ThpA-D-V-Y-C-5FW-F-Pro-dLys(DOTA)-COOH] (Ac-[hLeu]YCVGK[Ala(4-THP)]DVYC[Trp(5-F)]FP[dK](DOTA)-OH; disulfide 3-11)
Kd (human 4lg B7-H3; [4]): < 1 nM
% cell associated fraction (Calu-6 cell line [1]): B (25<%≤50)
% net internalization (Calu-6 cell line [2]): A (%≤25)

CC(C)CC[C@H](NC(=O)CCOCCOCCOCCOCCOCCOCCOCCOCCNC(=O)CN1CCN(CC(=O)O)CCN(CC(=O)O)CCN(CC(=O)O)CC1)C(=O)N[C@@H](Cc1ccc(O)cc1)C(=O)N[C@H]1CSSC[C@@H](C(=O)N[C@@H](Cc2c[nH]c3ccc(F)cc23)C(=O)N[C@@H](Cc2ccccc2)C(=O)N2CCC[C@H]2C(N)=O)NC(=O)[C@H](Cc2ccc(O)cc2)NC(=O)[C@H](C(C)C)NC(=O)[C@H](CC(=O)O)NC(=O)[C@H](Cc2ccc(C(=O)O)cc2)NC(=O)[C@H](CCCCN)NC(=O)CNC(=O)[C@H](C(C)C)NC1=O [compound 294, DOTA-PEG8-hLeu-Y-C-V-G-K-4COOHPhe-D-V-Y-C-5FW-F-Pro-CONH2] ({DOTA-PEG8}-[hLeu]YCVGK[Phe(4-COOH)]DVYC[Trp(5-F)]FP-NH2; disulfide 3-11)
Kd (human 4lg B7-H3; [3]): 1 to 10 nM
% cell associated fraction (Calu-6 cell line [1]): A (%≤25)
% net internalization (Calu-6 cell line [2]): A (%≤25)

CC(=O)N[C@@H](CCC(C)C)C(=O)N[C@@H](Cc1ccc(O)cc1)C(=O)N[C@H]1CSSC[C@@H](C(=O)N[C@@H](Cc2c[nH]c3ccc(F)cc23)C(=O)N[C@@H](Cc2ccccc2)C(=O)N[C@H](C(=O)N[C@H](CCCCNC(=O)CN2CCN(CC(=O)O)CCN(CC(=O)O)CCN(CC(=O)O)CC2)C(=O)O)C(C)(C)O)NC(=O)[C@H](Cc2ccc(O)cc2)NC(=O)[C@H](C(C)C)NC(=O)[C@H](CC(=O)O)NC(=O)[C@H](CC2CCOCC2)NC(=O)[C@H](CCCCN)NC(=O)CNC(=O)[C@H](C(C)(C)C)NC1=O [compound 303, Ac-hLeu-Y-C-Tbg-G-K-ThpA-D-V-Y-C-5FW-F-hydroxyVal-dLys(DOTA)-COOH] (Ac-[hLeu]YC[Tle]GK[Ala(4-THP)]DVYC[Trp(5-F)]F[Val(3-OH)][dK](DOTA)-OH; disulfide 3-11)
Kd (human 4lg B7-H3; [4]): < 1 nM
Kd (human 4lg B7-H3; [5]): < 1 nM
% cell associated fraction (Calu-6 cell line [1]): C (%>50)
% net internalization (Calu-6 cell line [2]): B (25<%≤50)
